Results from article PMC5365648, “Pharmacokinetics of the Novel Echinocandin CD101 in Multiple Animal Species” (Antimicrobial Agents and Chemotherapy, 2017).
Where two headings read alike, the source gives them in different places. Starred links: 1 amine or outer side, 2 acyl side, 3 side chain; linkers in the order of their positions; H or OH if unused. Positions of bridges follow the written chain, without caps; N, C: chain ends. Non-standard residues stand in square brackets, D forms with d. Residues, ends and D or L forms follow the SMILES beside them. *: point of attachment. Orn(4R-OH,5R-OCH2CH2NMe3+) = C[N+](C)(C)CCO[C@@H](N[*:3])[C@H](O)C[C@H](N[*:1])C(=O)[*:2]; pTerphenylCO(4''-OnC5H11) = CCCCCOc1ccc(-c2ccc(-c3ccc(C(=O)*)cc3)cc2)cc1; hTyr(3S-OH,4S-OH) = N[C@H](C(=O)O)[C@H](O)[C@@H](O)c1ccc(O)cc1; Pro(3S-OH,4S-Me) = C[C@H]1CN[C@H](C(=O)O)[C@H]1O; Hyp = O=C(O)[C@@H]1C[C@@H](O)CN1

Legend:
[1] = Mouse pharmacokinetics, i.p. injection; conditions: in vivo, ip, female ICR (CD-1) mice, plasma, LC-MS/MS, noncompartmental from mean profile, n = 3/time point
Procedure: A single 1-mg/kg dose of CD101 or anidulafungin was administered by slow i.v. bolus (∼2 min) to male ICR (CD-1) mice (n = 3/group/time point). Blood samples (via cardiac puncture) were collected for plasma processing predose and at 0.083 (5 min), 0.5, 1, 4, 8, 24, 48, and 72 h postdose. PK profiles were generated based on mean results from the three animals sampled at each time point. In another study, a single 1-, 4-, or 16-mg/kg dose of CD101 was administered by i.p. injection to female ICR (CD-1) mice (n = 3/time point/dose), and blood samples (via cardiac puncture) were drawn for plasma processing at 1, 3, 6, 12, 24, 48, 72, and 96 h postdose.
(§1) For each of the pharmacokinetic studies, whole-blood samples (K3EDTA as anticoagulant) were collected and centrifuged within 30 min of collection. The resulting plasma was harvested and stored at −20°C until analysis. Tissue samples were homogenized by a bead-based homogenizer following the addition of deionized water to excised tissue in a 2:1 (vol/wt) ratio and stored at −20°C until analysis. Prior to analysis, plasma or homogenized tissue samples were quenched with acetonitrile (3:1, acetonitrile-plasma or tissue ratio) containing an appropriate internal standard (isotopically labeled d9-CD101 [mouse and rat] or a structural analog [dog, monkey, and chimpanzee]). Plasma and tissue homogenate concentrations (quantified against calibration standards processed the same way) were determined by reverse-phase, gradient liquid chromatography with tandem mass spectrometric detection (LC-MS/MS) using an AB-SCIEX API 3200Q/4000 mass spectrometry system. Calibration standard ranges were the following: 0.400 (lower limit of quantitation, [LLOQ]) to 200 μg/ml (CD101, mouse), 0.040 (LLOQ) to 10 μg/ml (anidulafungin, mouse), 0.002 (LLOQ) to 10 μg/ml (CD101, rat), 0.005 (LLOQ) to 10 μg/ml (anidulafungin, rat), 0.050 (LLOQ) to 10 μg/ml (CD101, dog), 0.020 (LLOQ) to 10 μg/ml (anidulafungin, dog), 0.010 (LLOQ) to 10 μg/ml (CD101, monkey), 0.001 (LLOQ) to 10 μg/ml (anidulafungin, monkey), 0.015 (LLOQ) to 10 μg/ml (CD101, chimpanzee), and 0.015 (LLOQ) to 10 μg/ml (anidulafungin, chimpanzee). When necessary, dilutions with blank matrix were made for samples that quantified above the upper limit of quantitation. The methods used in the analysis were qualified as fit for purpose: calibration standards were matrix matched with the exception that human plasma calibration standards were used to analyze chimpanzee plasma samples due to the rarity of blank chimpanzee plasma, and, for each analytical batch, triplicate calibration standards were included at the beginning, approximately in the middle, and at the end of the batch. Following analysis, quantitation was carried out by a calibration curve comprising the analyte/internal standard area ratio versus concentration. Analytical batch acceptance followed the general guidance that triplicate standards/quality controls be within ±20% for accuracy (percentage of nominal concentration) and ≤20% for precision (percent coefficient of variation).
(§2) Pharmacokinetic parameters were calculated by noncompartmental analysis using Phoenix WinNonlin (version 6.3; Pharsight, Mountain View, CA) from either individual or mean (mouse) concentration-time profiles. An unpaired t test was used to compare mean exposures from male and female rats.

[2] = Rat tissue distribution after i.v. bolus; assay type: in vivo, Sprague-Dawley rats; conditions: for Kp: rat, iv
Procedure: In one of three rat studies reported here, a single 5-, 15-, or 45-mg/kg dose of CD101 was administered by slow i.v. bolus (∼3 min) to Sprague-Dawley rats (n = 3 to 5/dose). Blood samples (via jugular vein catheter [JVC]) were drawn for plasma processing at 0.083, 0.25, 0.5, 1, 2, 4, 8, 24, 48, 120, 168, and 240 h after dosing. In the second rat study, conducted to assess tissue distribution, a single 5-mg/kg dose of CD101 was administered by slow i.v. bolus (∼3 min) to male Sprague-Dawley rats (n = 3 animals/time point). Blood samples (via cardiac puncture) were collected for plasma processing predose and at 0.083, 0.5, 1, 2, 4, 8, 24, 48, 72, 96, and 120 h postdose. In parallel with blood collection, animals were euthanized, and tissues (liver, lungs, kidneys, heart, spleen, and brain) were excised and frozen prior to analysis. In the third rat study, conducted to assess excretion, a single 5-mg/kg dose of CD101 was administered by slow i.v. bolus (∼3 min) to bile duct-cannulated male Sprague-Dawley rats (n = 3). Bile samples were collected from each animal into prelabeled bile collection tubes predose and at 0 to 8, 8 to 24, 24 to 48, 48 to 72, 72 to 96, and 96 to 120 h postdose; urine samples were collected from each animal at the same time points pre- and postdose.
as §1, §2

[3] = ref [10], cited from earlier work
Procedure: The half-life of CD101 in human is about 3-fold longer (about 90 h) than that of anidulafungin (about 30 h) ([10]). It should be noted that 90 h is the effective half-life of CD101 (i.e., the half-life that covers the majority of the AUC), with a longer, later-phase half-life evident at lower concentration ...

[4] = male Sprague-Dawley rats, single 5 mg/kg i.v. bolus
[5] = male Sprague-Dawley rats, single 5 mg/kg i.v. bolus, t = 120 h, LC-MS/MS, n = 3/time point

## CCCCCOc1ccc(-c2ccc(-c3ccc(C(=O)N[C@H]4C[C@@H](O)[C@@H](OCC[N+](C)(C)C)NC(=O)[C@@H]5[C@@H](O)[C@@H](C)CN5C(=O)[C@H]([C@@H](C)O)NC(=O)[C@H]([C@H](O)[C@@H](O)c5ccc(O)cc5)NC(=O)[C@@H]5C[C@@H](O)CN5C(=O)[C@H]([C@@H](C)O)NC4=O)cc3)cc2)cc1 [CD101] ({pTerphenylCO(4''-OnC5H11)}-[Orn(4R-OH,5R-OCH2CH2NMe3+)]T[Hyp][hTyr(3S-OH,4S-OH)]T[Pro(3S-OH,4S-Me)]; lactam 1-C)
[1]; single 1 mg/kg i.p.
  AUC(0-inf): 88.9 µg·h/mL
  AUC(0-t): 59.6 µg·h/mL
  Cmax: 3970 ng/mL
  Tmax: 1 h
  half-life: 71.1 h
[1]; single 4 mg/kg i.p.
  AUC(0-inf): 313 µg·h/mL
  AUC(0-t): 245 µg·h/mL
  Cmax: 13600 ng/mL
  Tmax: 1 h
  half-life: 44.5 h
[1]; single 16 mg/kg i.p.
  AUC(0-inf): 1200 µg·h/mL
  AUC(0-t): 902 µg·h/mL
  Cmax: 52000 ng/mL
  Tmax: 1.67 h
  half-life: 60.8 h
[2]; [4]
  Tmax in brain tissue: 48 h
  Tmax in heart tissue: 8 h
  time of maximum concentration in plasma and tissues except heart and brain (first sampling time): 5 min
[2]; [5]
  Mean AUC0–t in brain tissue: 145 µg·h/g
  Mean AUC0–t in kidney tissue: 1,100 μg · hr/g
[2]; male, Sprague-Dawley, kidney, lung, liver, spleen / plasma, rats, 5 mg/kg i.v., read-out: Tissue/plasma AUC ratio, fold higher in major organs (kidney, lung, liver, spleen) than in plasma
  Kp: 4 to 5
[2]; brain / plasma, male Sprague-Dawley rats, single 5 mg/kg i.v. bolus, t = 120 h, tissue homogenate, LC-MS/MS, n = 3/time point, read-out: Tissue/plasma AUC0–t ratio, brain
  Kp: 0.609
[2]; heart / plasma, male Sprague-Dawley rats, single 5 mg/kg i.v. bolus, t = 120 h, tissue homogenate, LC-MS/MS, n = 3/time point, read-out: Tissue/plasma AUC0–t ratio, heart
  Kp: 1.09
[2]; kidney, male Sprague-Dawley rats, single 5 mg/kg i.v. bolus, t = 120 h, tissue homogenate, LC-MS/MS, n = 3/time point, read-out: Tissue/plasma AUC0–t ratio, kidney
  Kp: 4.62
[2]; liver, male Sprague-Dawley rats, single 5 mg/kg i.v. bolus, t = 120 h, tissue homogenate, LC-MS/MS, n = 3/time point, read-out: Tissue/plasma AUC0–t ratio, liver
  Kp: 4.14
[2]; lung, male Sprague-Dawley rats, single 5 mg/kg i.v. bolus, t = 120 h, tissue homogenate, LC-MS/MS, n = 3/time point, read-out: Tissue/plasma AUC0–t ratio, lung
  Kp: 4.33
[2]; spleen / plasma, male Sprague-Dawley rats, single 5 mg/kg i.v. bolus, t = 120 h, tissue homogenate, LC-MS/MS, n = 3/time point, read-out: Tissue/plasma AUC0–t ratio, spleen
  Kp: 3.87
[3]; for CD101 the effective half-life (covers the majority of the AUC)
  half-life in human: about 90 h
[3]
  half-life in human, fold longer than anidulafungin: about 3 fold
